Measurements published in patent US6300347A, “2-substituted 4,5-diaryl imidazoles” (Novartis AG, priority 1997, dated 2001).

Tests used:
p38 MAP kinase = target: T1, p38 MAP kinase (Mus musculus, UniProt P47811); assay: p38 MAP kinase Assay (GST-ATF-2 phosphorylation, His-p38 MAP kinase); format: biochemical, murine; conditions: ATP 120 μM; substrate GST-ATF-2; 1 h at 37° C; read-out: IC50 for p38 MAP kinase inhibition
T1 construct: full length murine p38 MAP kinase; His tag; made in house; host or cells: E. coli
Description: The substrate (GST-ATF-2; a fusion protein comprising amino acids 1-109 of ATF-2 and the GST protein obtained by expression in E. coli) is coated onto the wells of microtiter plates (50 μl/well; 1 μg/ml in PBS/0.02% Na azide) overnight at 4° C. The following day, the microtiter plates are washed four times with PBS/0.5% Tween 20/0.02% Na azide and are blocked with PBS/2% BSA/0.02% Na Azide for 1 h at 37° C. Plates are washed again 4 times with PBS/0.5% Tween 20/0.02% Na azide. The kinase cascade reaction is then started by adding the following reactants in 10 μl aliquots to a final reaction volume of 50 μl.
1. Agents of the Invention titrated from 10 to 0.001 μM in 10-fold dilutions or solvent (DMSO) or H2 O.
2. Kinase buffer (5×); pH 7.4; 125 mM Hepes (Stock at 1M; Gibco #15630-056). […]
After 1 h at 37° C. the kinase reaction is terminated by washing the plates four times as previously described. Phosphorylated GST-ATF-2 is then detected by adding: […]
After step 1,2 and 3 the microtiter plates are washed four times with PBS/0.5% Tween 20/0.02% Na azide. After step 4, the plates are read in a Bio-Rad microplate reader in a dual wavelength mode (measurement filter 405 nm and reference filter 490 nm). The background value (without ATP) is subtracted and IC50 values are calculated using the Origin computer program (4 parameter logistic function).

[1] = system: TNF-α release from hPBMCs; assay: Assay for Inhibition of TNF-α release from hPBMCs; format: cell-based; conditions: Homo sapiens, 3 h, IFNg (100 U/ml) and LPS, three hours, TNF-α by ELISA, read-out: IC50, suppression of TNF release
Description: Human peripheral blood mononuclear cells (hPBMCs) are prepared from the peripheral blood of healthy volunteers using ficoll-hypaque density separation accordinc to the method of Hansel et al., J. Imm. […] Cells are incubated with serial dilutions of the test compounds for 30 minutes at 37° C. prior to the addition of IFNg (100 U/ml) and LPS (5 mg/ml) and subsequently further incubated for three hours. Incubation is terminated by centrifugation at 1400 RPM for 10 min. TNF-α in the supernatant is measured using a commercial ELISA (Innotest hTNFa, available from Innogenetics N.V., Zwijnaarde, Belium). Agents of the Invention are tested at concentrations of from 0 to 10 mM.

TNF-α = assay: Assay for Inhibition of TNF-α Production in LPS Stimulated Mice; format: in vivo; conditions: LPS 20 mg/kg i.v.; OF1 mice (female); plasma TNF 1 hour after LPS
Description: Assay for Inhibition of TNF-α Production in LPS Stimulated Mice
Injection of lipopolysaccharide (LPS) induces a rapid release of soluble tumour necrosis factor (TNF-α) into the periphery. This model is be used to analyse prospective blockers of TNF release in vivo.
LPS (20 mg/kg) is injected i.v. into OF1 mice (female, 8 week old). One (1) hour later blood is withdrawn from the animals and TNF levels are analysed in the plasma by an ELISA method using an antibody to TNF-α. […] Compounds to be evaluated are given either orally or s.c. 1 to 4 hours prior to the LPS injection. Inhibition of LPS-induced TNF-release is taken as the readout.

T1 sequence (P47811 whole entry): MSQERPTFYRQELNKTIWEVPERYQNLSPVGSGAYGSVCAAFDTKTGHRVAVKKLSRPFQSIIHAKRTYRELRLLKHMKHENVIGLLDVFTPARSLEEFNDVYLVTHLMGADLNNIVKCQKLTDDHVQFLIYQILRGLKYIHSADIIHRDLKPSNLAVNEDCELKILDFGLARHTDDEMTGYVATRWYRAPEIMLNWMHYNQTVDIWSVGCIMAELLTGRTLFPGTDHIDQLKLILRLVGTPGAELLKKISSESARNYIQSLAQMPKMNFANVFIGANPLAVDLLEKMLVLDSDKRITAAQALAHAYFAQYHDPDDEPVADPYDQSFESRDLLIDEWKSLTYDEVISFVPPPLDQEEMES

`Nc1nc(N)c(F)c(-c2nc(-c3ccc(F)cc3)c(-c3ccncc3)[nH]2)c1F` [Example 17, 4-(4-Fluorophenyl)-5-(4-pyridyl) 2-(2,6-diamino-3,5-difluoropyridinyl)imidazole] was tested. Which IC50 (p38 MAP kinase) did it give?
The IC50 was roughly 10 nM.

What about the IC50 [1] of the same compound?
The IC50 was roughly 90 nM.

And the “inhibition of TNF production” value (TNF-α)?
The value was “about 80%”.
